According to ChEMBL document CHEMBL1629584, “Inactivation of KsgA, a 16S rRNA methyltransferase, causes vigorous emergence of mutants with high-level kasugamycin resistance” (2009):
In brackets after ≈: the same amount, converted by molar mass.

Legend:
Format in all cases: functional
Bacillus subtilis [1] = assay: Antibacterial activity against Bacillus subtilis isolate 10 harboring 706C-T KsgA mutant and expressing amino acid exchange at R236C in KsgA gene
Escherichia coli = assay: Antibacterial activity against Escherichia coli BW25113 after 15 hrs; settings: BW25113, 15 h
Bacillus subtilis [2] = assay: Antibacterial activity against Bacillus subtilis isolate 3 harboring 301C-T KsgA and expressing amino acid exchange at Gln101-stop codon in KsgA gene
Bacillus subtilis [3] = assay: Antibacterial activity against Bacillus subtilis isolate 1 harboring 253-261 deficient KsgA and expressing amino acid exchange at 85-87 Ile, Leu, Lys-deletionin KsgA gene
Bacillus subtilis [4] = assay: Antibacterial activity against Bacillus subtilis isolate 15 harboring 324C-CTC KsgA mutant and expressing amino acid exchange at K109S, Val 125 - stop codon in KsgA gene
Bacillus subtilis [5] = assay: Antibacterial activity against Bacillus subtilis isolate KO-879 KsgA mutant and harboring 236G-T speD mutant and expressing amino acid exchange at S79I in speD gene after 2 days; settings: isolate KO-879, 48 h
Bacillus subtilis [6] = assay: Antibacterial activity against Bacillus subtilis isolate KO-847 KsgA mutant after 2 days; settings: isolate KO-847, 48 h
Bacillus subtilis [7] = assay: Antibacterial activity against Bacillus subtilis isolate KO-894 speD mutant after 2 days; settings: isolate KO-894, 48 h
Bacillus subtilis [8] = assay: Antibacterial activity against Bacillus subtilis isolate 11 harboring 274-295 deficient KsgA mutant and expressing amino acid exchange at P92F, Thr 97- stop codon in KsgA gene
Bacillus subtilis [9] = assay: Antibacterial activity against Bacillus subtilis isolate 8 harboring 515G-GGG KsgA mutant and expressing amino acid exchange at S173A, Met 188 -stop codon in KsgA gene
Bacillus subtilis [10] = assay: Antibacterial activity against Bacillus subtilis isolate 14 harboring 608C-T KsgA mutant and expressing amino acid exchange at S203F in KsgA gene
Bacillus subtilis [11] = assay: Antibacterial activity against Bacillus subtilis isolate 9 harboring 515G-GG KsgA mutant and expressing amino acid exchange at S173L,Asn 200 -stop codon in KsgA gene
Bacillus subtilis [12] = assay: Antibacterial activity against Bacillus subtilis isolate 17 harboring 709-850 deficient KsgA mutant and expressing amino acid exchange at K237L in KsgA gene
Bacillus subtilis [13] = assay: Antibacterial activity against Bacillus subtilis isolate 18 harboring 495-525 deficient KsgA mutant and expressing amino acid exchange at N165E, Ala 177- stop codon in KsgA gene
Bacillus subtilis [14] = assay: Antibacterial activity against Bacillus subtilis isolate 4 harboring 709-850 deficient KsgA and expressing amino acid exchange at K237L in KsgA gene
Bacillus subtilis [15] = assay: Antibacterial activity against Bacillus subtilis isolate KO-877 KsgA mutant and harboring 191A-T speD mutant and expressing amino acid exchange at G64Vin speD gene after 2 days; settings: isolate KO-877, 48 h
Bacillus subtilis [16] = assay: Antibacterial activity against Bacillus subtilis isolate 7 harboring 198T-TT KsgA mutant and expressing amino acid exchange at A67C, Glu 77- stop codon in KsgA gene
Bacillus subtilis [17] = assay: Antibacterial activity against Bacillus subtilis isolate 6 harboring 272C-G KsgA mutant and expressing amino acid exchange at Ser 91 -stop codon in KsgA gene
Bacillus subtilis [18] = assay: Antibacterial activity against wild-type Bacillus subtilis 168 after 15 hrs; settings: subsp. subtilis str. 168, 15 h
Bacillus subtilis [19] = assay: Antibacterial activity against Bacillus subtilis isolate KO-875 KsgA mutant and harboring 19G-T speD mutant and expressing amino acid exchange at G7Win speD gene after 2 days; settings: isolate KO-875, 48 h
Bacillus subtilis [20] = assay: Antibacterial activity against Bacillus subtilis isolate KO-878 KsgA mutant and harboring 193T-A speD mutant and expressing amino acid exchange at S65T in speD gene after 2 days; settings: isolate KO-878, 48 h
Bacillus subtilis [21] = assay: Antibacterial activity against Bacillus subtilis isolate 5 harboring 478-492 deficient KsgA and expressing amino acid exchange at Glu 160, Ala 164 deletion in KsgA gene
Bacillus subtilis [22] = assay: Antibacterial activity against Bacillus subtilis isolate 19 harboring 230A-G KsgA mutant and expressing amino acid exchange at A61G, E77K in KsgA gene
Bacillus subtilis [23] = assay: Antibacterial activity against Bacillus subtilis RIK543 after 15 hrs; settings: RIK543, 15 h
Bacillus subtilis [24] = assay: Antibacterial activity against Bacillus subtilis isolate 16 harboring 181G-GG KsgA mutant and expressing amino acid exchange at A61G, Glu 77- stop codon in KsgA gene
Bacillus subtilis [25] = assay: Antibacterial activity against Bacillus subtilis isolate 2 harboring 708-717 deficient KsgA and expressing amino acid exchange at K235S, Leu240-stop codon in KsgA gene
Bacillus subtilis [26] = assay: Antibacterial activity against Bacillus subtilis isolate KO-876 KsgA mutant and harboring 22C-GT speD mutant after 2 days; settings: isolate KO-876, 48 h
Bacillus subtilis [27] = assay: Antibacterial activity against Bacillus subtilis isolate 12 harboring 597-615 deficient KsgA mutant and expressing amino acid exchange at N200F, Asp 202- stop codon in KsgA gene
Bacillus subtilis [28] = assay: Antibacterial activity against Bacillus subtilis isolate 13 harboring 393C-G KsgA mutant and expressing amino acid exchange at Tyr 131- stop codon in KsgA gene

In the case of `C[C@H]1O[C@H](O[C@H]2[C@H](O)[C@@H](O)[C@@H](O)[C@H](O)[C@@H]2O)[C@@H](N)C[C@@H]1NC(=N)C(=O)O` [KASUGAMYCIN], the MIC (Bacillus subtilis [1]) is reported as 1500 µg/mL (≈ 3.95 mM), the MIC (Escherichia coli) is reported as 200 µg/mL (≈ 0.527 mM) and the MIC (Bacillus subtilis [2]) is reported as 1500 µg/mL (≈ 3.95 mM). It also gave an MIC (Bacillus subtilis [3]) of 1500 µg/mL (≈ 3.95 mM), an MIC (Bacillus subtilis [4]) of 1500 µg/mL (≈ 3.95 mM) and an MIC (Bacillus subtilis [5]) of 15000 µg/mL (≈ 39.5 mM). The MIC (Bacillus subtilis [6]) was 5000 µg/mL (≈ 13.2 mM), the MIC (Bacillus subtilis [7]) was 4000 µg/mL (≈ 10.5 mM) and the MIC (Bacillus subtilis [8]) was 1500 µg/mL (≈ 3.95 mM). It also gave an MIC (Bacillus subtilis [9]) of 1500 µg/mL (≈ 3.95 mM), an MIC (Bacillus subtilis [10]) of 1500 µg/mL (≈ 3.95 mM) and an MIC (Bacillus subtilis [11]) of 1500 µg/mL (≈ 3.95 mM). It also gave an MIC (Bacillus subtilis [12]) of 1500 µg/mL (≈ 3.95 mM), an MIC (Bacillus subtilis [13]) of 1500 µg/mL (≈ 3.95 mM) and an MIC (Bacillus subtilis [14]) of 1500 µg/mL (≈ 3.95 mM). It also gave an MIC (Bacillus subtilis [15]) of 15000 µg/mL (≈ 39.5 mM), an MIC (Bacillus subtilis [16]) of 1500 µg/mL (≈ 3.95 mM) and an MIC (Bacillus subtilis [17]) of 1500 µg/mL (≈ 3.95 mM). The MIC (Bacillus subtilis [18]) was 1500 µg/mL (≈ 3.95 mM), the MIC (Bacillus subtilis [19]) was 15000 µg/mL (≈ 39.5 mM) and the MIC (Bacillus subtilis [20]) was 15000 µg/mL (≈ 39.5 mM). It also gave an MIC (Bacillus subtilis [21]) of 1500 µg/mL (≈ 3.95 mM), an MIC (Bacillus subtilis [22]) of 1500 µg/mL (≈ 3.95 mM) and an MIC (Bacillus subtilis [23]) of 500 µg/mL (≈ 1.32 mM). The MIC (Bacillus subtilis [24]) was 1500 µg/mL (≈ 3.95 mM), the MIC (Bacillus subtilis [25]) was 1500 µg/mL (≈ 3.95 mM) and the MIC (Bacillus subtilis [26]) was 15000 µg/mL (≈ 39.5 mM). For the same compound, the MIC (Bacillus subtilis [27]) was 1500 µg/mL (≈ 3.95 mM) and the MIC (Bacillus subtilis [28]) was 1500 µg/mL (≈ 3.95 mM).
With `CN[C@@H]1[C@H](O[C@H]2[C@H](O[C@H]3[C@H](O)[C@@H](O)[C@H](N=C(N)N)[C@@H](O)[C@@H]3N=C(N)N)O[C@@H](C)[C@]2(O)C=O)O[C@@H](CO)[C@H](O)[C@H]1O` [STREPTOMYCIN] the MIC (Bacillus subtilis [18]) was 15 µg/mL (≈ 0.0258 mM) and the MIC (Bacillus subtilis [23]) was 5 µg/mL (≈ 0.0086 mM).
Work on `C=C(NC(=O)C(=C)NC(=O)c1csc(C2=N[C@@H]3c4csc(n4)[C@H]4NC(=O)c5csc(n5)[C@H]([C@](C)(O)[C@@H](C)O)NC(=O)[C@H]5CSC(=N5)/C(=C/C)NC(=O)[C@H]([C@@H](C)O)NC(=O)c5csc(n5)[C@]3(CC2)NC(=O)[C@H](C)NC(=O)C(=C)NC(=O)[C@H](C)NC(=O)[C@H]([C@@H](C)CC)N[C@@H]2C=Cc3c([C@H](C)O)cc(nc3[C@H]2O)C(=O)O[C@@H]4C)n1)C(N)=O` [THIOSTREPTON] yielded an MIC (Bacillus subtilis [18]) of 0.04 µg/mL (≈ 2.4e-05 mM) and an MIC (Bacillus subtilis [23]) of 0.02 µg/mL (≈ 1.2e-05 mM).
`CO[C@H]1/C=C/O[C@@]2(C)Oc3c(C)c(O)c4c(O)c(c(/C=N/N5CCN(C)CC5)c(O)c4c3C2=O)NC(=O)/C(C)=C\C=C\[C@H](C)[C@H](O)[C@@H](C)[C@@H](O)[C@@H](C)[C@H](OC(C)=O)[C@@H]1C` [RIFAMPIN] gave an MIC (Bacillus subtilis [18]) of 0.1 µg/mL (≈ 0.000122 mM) and an MIC (Bacillus subtilis [23]) of 0.01 µg/mL (≈ 1.22e-05 mM).
